molecular target: ROCK2 (Homo sapiens (Human), UniProt O75116); assay: Rho-kinase inhibition ELISA (ROCK active-II, MYPT1 substrate); format: biochemical; conditions: Table 1; classes given as pIC50; ATP 250 μM; read-out: ROCK2 IC50
Procedure: To measure Rho-kinase inhibition, IC50 values were determined according to the following ELISA protocol:
ROCK Substrate Coated Plate (Part No 241601): One strip well 96-well plate pre-coated with recombinant MYPT1.
Buffer: 25 mM Tris, pH 7.5, 10 mM MgCl2, 5 mM Glycerol-2-Phosphate, 0.1 mM Na3VO4; 1% DMSO; 2.5 mM DTT; (Enzyme: ROCK active-II) (Cell Biolabs, Catalog #STA-406, Part No. 241505) 0.1 ng/μl.
ATP Solution (Part No. 241604): 100 mM ATP. Final concentration of ATP in reaction mixture: 250 μM.
Secondary Antibody, HRP Conjugate (Part No. 231003).
Biotinylated substrate, diluted to 0.25 μM with buffer described above (without ATP).
1. Purified kinase or cell lysate sample can be used directly in the kinase assay or further diluted with 1× Kinase Buffer. Each sample should be assayed in duplicate.
2. Add 90 μL of the diluted active ROCK-II positive control or unknown ROCK samples to the wells of the substrate plate.
3. Initiate the kinase reaction by adding 10 μL of the 10× Kinase Reaction Buffer containing DTT and ATP. Mix well.
4. Cover with a plate cover and incubate the wells at 30° C. for 30-60 minutes with gentle agitation.
5. Stop kinase reaction by flicking out the content or by adding 50 μL of 0.5M EDTA, pH 8.0, to each well.
6. Remove the plate cover and empty wells. Wash microwell strips 3 times with 250 μL 1× Wash Buffer per well with thorough aspiration between each wash. After the last wash, empty wells and tap microwell strips on absorbent pad or paper towel to remove excess 1× Wash Buffer.
7. Add 100 μL of the diluted anti-phospho-MYPT1 (Thr696) antibody to each well.
8. Cover with the plate cover and incubate at room temperature for 1 hour on an orbital shaker.
9. Remove the plate cover and empty wells. Wash the strip wells 3 times according to step 6 above.
10. Add 100 μL of the diluted HRP-conjugated secondary antibody to each well.
11. Cover with the plate cover and incubate at room temperature for 1 hour on an orbital shaker.
12. Remove the plate cover and empty wells. Wash microwell strips 3 times according to step 6 above. Proceed immediately to the next step.
13. Warm Substrate Solution to room temperature. Add 100 μL of Substrate Solution to each well, including the blank wells. Incubate at room temperature for 5-20 minutes on an orbital shaker.
14. Stop the enzyme reaction by adding 100 μL of Stop Solution into each well, including the blank wells. Results should be read immediately (color will fade over time).
15. Read absorbance of each microwell on a spectrophotometer using 450 nm as the primary wave length.
The given activity (shown in Table 1 and Table 2) is denoted as the negative logarithm of the IC50 (pIC50) as follows: […]

Sequence of ROCK2 (O75116 whole entry, species assumed): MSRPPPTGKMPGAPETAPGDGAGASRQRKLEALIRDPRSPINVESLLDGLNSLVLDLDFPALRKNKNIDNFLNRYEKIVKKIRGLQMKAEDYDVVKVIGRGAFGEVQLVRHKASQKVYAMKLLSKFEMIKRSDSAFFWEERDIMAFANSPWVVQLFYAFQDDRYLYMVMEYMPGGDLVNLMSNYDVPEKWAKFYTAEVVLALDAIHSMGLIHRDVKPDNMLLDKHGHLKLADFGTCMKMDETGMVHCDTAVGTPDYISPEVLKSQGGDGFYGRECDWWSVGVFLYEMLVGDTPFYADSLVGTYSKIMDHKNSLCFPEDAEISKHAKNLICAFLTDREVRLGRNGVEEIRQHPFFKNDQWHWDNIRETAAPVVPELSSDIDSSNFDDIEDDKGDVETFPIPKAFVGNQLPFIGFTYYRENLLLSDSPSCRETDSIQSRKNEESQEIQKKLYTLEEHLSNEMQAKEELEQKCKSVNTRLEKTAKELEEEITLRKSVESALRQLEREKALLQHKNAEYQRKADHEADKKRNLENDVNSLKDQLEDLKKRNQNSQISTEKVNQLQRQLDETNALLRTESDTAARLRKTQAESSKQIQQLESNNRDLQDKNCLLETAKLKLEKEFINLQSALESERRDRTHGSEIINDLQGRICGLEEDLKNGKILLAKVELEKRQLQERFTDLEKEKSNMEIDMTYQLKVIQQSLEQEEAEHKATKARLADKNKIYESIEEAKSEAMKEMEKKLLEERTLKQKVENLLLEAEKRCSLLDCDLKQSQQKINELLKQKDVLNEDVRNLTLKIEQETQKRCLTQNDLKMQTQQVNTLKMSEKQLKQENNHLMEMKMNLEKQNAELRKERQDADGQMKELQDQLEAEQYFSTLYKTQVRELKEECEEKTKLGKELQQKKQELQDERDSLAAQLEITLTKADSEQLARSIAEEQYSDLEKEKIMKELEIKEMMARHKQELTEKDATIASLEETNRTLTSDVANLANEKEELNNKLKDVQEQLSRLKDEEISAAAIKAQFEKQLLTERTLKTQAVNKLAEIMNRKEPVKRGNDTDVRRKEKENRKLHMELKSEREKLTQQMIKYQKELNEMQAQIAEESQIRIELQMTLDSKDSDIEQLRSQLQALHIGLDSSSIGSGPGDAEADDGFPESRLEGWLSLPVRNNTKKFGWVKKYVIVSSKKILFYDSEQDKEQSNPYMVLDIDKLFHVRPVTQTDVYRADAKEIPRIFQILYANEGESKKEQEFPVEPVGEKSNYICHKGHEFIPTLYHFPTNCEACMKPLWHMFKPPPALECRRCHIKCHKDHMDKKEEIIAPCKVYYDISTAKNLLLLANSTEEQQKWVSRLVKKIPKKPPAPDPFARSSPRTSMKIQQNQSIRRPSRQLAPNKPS

Row | IC50 [nM] | Compound
1 | 10 to 100 | CN(C)CCN(Cc1ccc(Cl)cc1)C(=O)Nc1ccc2cnccc2c1 [compound 1]
2 | 10 to 100 | CN(C)CCN(Cc1ccc(F)cc1)C(=O)Nc1ccc2cnccc2c1 [compound 2]
3 | 100 to 1000 | COc1cccc(CN(CCN(C)C)C(=O)Nc2ccc3cnccc3c2)c1 [compound 3]
4 | 100 to 1000 | COc1cccc(CN(CCO)C(=O)Nc2ccc3cnccc3c2)c1 [compound 4]
5 | 10 to 100 | O=C(Nc1ccc2cnccc2c1)N[C@@H](CO)c1ccccc1 [compound 6]
6 | 100 to 1000 | CN(C)CCN(Cc1cccc(F)c1)C(=O)Nc1ccc2cnccc2c1 [compound 8]

same assay, conditions: Table 2; classes given as pIC50; ATP 250 μM

Row | ROCK IC50 | Compound
7 | + (pIC50<6.0) | COC(=O)c1ccc(CN(CCN(C)C)C(=O)Nc2cccc3cnccc23)cc1 [compound 10]
8 | + (pIC50<6.0) | CN(C)CCN(Cc1ccc(CO)cc1)C(=S)Nc1cccc2cnccc12 [compound 12]
9 | + (pIC50<6.0) | NCCN(Cc1ccc(O)cc1)C(=O)Nc1ccc2cnccc2c1 [compound 13]
10 | + (pIC50<6.0) | CSc1ccc(CN(CCN)C(=O)Nc2ccc3cnccc3c2)cc1 [compound 17]
11 | + (pIC50<6.0) | COC(=O)c1ccc(CN(CCN)C(=O)Nc2ccc3cnccc3c2)cc1 [compound 18]
12 | + (pIC50<6.0) | NCCN(Cc1ccc(F)cc1)C(=O)Nc1cccc2cnccc12 [compound 20]
13 | ++++ (pIC50>8.0) | NCC(NC(=S)Nc1ccc2cnccc2c1)c1ccccc1 (centres unmarked) [compound 24]
14 | ++++ (pIC50>8.0) | NCC(NC(=O)Nc1ccc2cnccc2c1)c1ccc(F)cc1 (centres unmarked) [compound 25]
15 | ++++ (pIC50>8.0) | NCC(NC(=S)Nc1ccc2cnccc2c1)c1ccc(F)cc1 (centres unmarked) [compound 26]
16 | ++++ (pIC50>8.0) | NCCN(Cc1ccc(Cl)cc1)C(=S)Nc1ccc2cnccc2c1 [compound 31]
17 | ++++ (pIC50>8.0) | COc1cccc(C(CN)NC(=S)Nc2ccc3cnccc3c2)c1 (centres unmarked) [compound 35]
18 | ++++ (pIC50>8.0) | N#C/N=C(/Nc1ccc2cnccc2c1)N(CCN)Cc1ccccc1 [compound 36]
19 | ++++ (pIC50>8.0) | COc1ccc(CN(CCN)/C(=N\C#N)Nc2ccc3cnccc3c2)cc1 [compound 37]
20 | ++++ (pIC50>8.0) | Cl.NCC(NC(=S)Nc1ccc2cnccc2c1)c1cccc2ccccc12 (centres unmarked) [compound 39]

same assay, conditions: Table 2; classes given as pIC50; ATP 250 μM; read-out: ROCK IC50

Row | IC50 [nM] | Compound
21 | 100 to 1000 | CN(C)CCN(Cc1ccccc1)C(=O)Nc1cccc2cnccc12 [compound 6]
22 | 100 to 1000 | CN(C)CCN(Cc1ccc(Cl)cc1)C(=O)Nc1cccc2cnccc12 [compound 7]
23 | 100 to 1000 | NCCN(Cc1ccc(F)cc1)C(=O)Nc1ccc2cnccc2c1 [compound 8]
24 | 100 to 1000 | CN(C)CCN(Cc1ccc(F)cc1)C(=S)Nc1cccc2cnccc12 [compound 11]
25 | 100 to 1000 | NCCN(Cc1ccccc1)C(=O)Nc1ccc2cnccc2c1 [compound 14]
26 | 100 to 1000 | NCCN(Cc1ccc(Br)cc1)C(=O)Nc1ccc2cnccc2c1 [compound 15]
27 | 100 to 1000 | NCCN(Cc1cccc(F)c1)C(=O)Nc1ccc2cnccc2c1 [compound 16]
28 | 100 to 1000 | NCCN(Cc1ccc(F)cc1)C(=S)Nc1ccc2cnccc2c1 [compound 19]
29 | 100 to 1000 | CC(c1ccc(F)cc1)N(CCN)C(=O)Nc1ccc2cnccc2c1 (centres unmarked) [compound 22]
30 | 10 to 100 | CC(c1ccc(F)cc1)N(CCN)C(=O)Nc1ccc2cnccc2c1 (centres unmarked) [compound 23]
31 | 100 to 1000 | NCCN(Cc1ccccc1)C(=S)Nc1ccc2cnccc2c1 [compound 27]
32 | 100 to 1000 | NCCN(Cc1cccc(F)c1)C(=S)Nc1ccc2cnccc2c1 [compound 28]
33 | 10 to 100 | N#C/N=C(/Nc1ccc2cnccc2c1)N(CCN)Cc1cccc(F)c1 [compound 29]
34 | 10 to 100 | N#C/N=C(/Nc1ccc2cnccc2c1)N(CCN)Cc1ccc(F)cc1 [compound 30]
35 | 100 to 1000 | Cc1ccc(CN(CCN)C(=S)Nc2ccc3cnccc3c2)cc1 [compound 32]
36 | 100 to 1000 | NCCN(Cc1ccc(Cl)c(F)c1)C(=S)Nc1ccc2cnccc2c1 [compound 33]
37 | 10 to 100 | N#C/N=C(\Nc1ccc2cnccc2c1)N(CCN)Cc1ccc(Br)cc1 [compound 34]
38 | 10 to 100 | NCCN(Cc1cccc(Cl)c1)C(=S)Nc1ccc2cnccc2c1 [compound 38]

Source: patent US10696638B2, “Compounds for inhibiting AGC kinase and pharmaceutical compositions comprising the same” (Industrial Technology Research Institute, priority 2017, dated 2020)
